# Measured values reported in PubChem BioAssay (NCI).
#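 The compound was tested at five concentrations on cells cultured in 96-well plates, with a 48-hour exposure period. The concentration for 50% growth inhibition is given as GI50. TGI denotes the concentration required for complete inhibition of growth.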
# What was measured:
# Experiment in all cases: NCI anticancer screen, dose series, 48 h
# 786-0 renal = tested on: 786-0 renal
# A549 NSCLC = tested on: A549 NSCLC
# ACHN renal = tested on: ACHN renal
# BT-549 breast = tested on: BT-549 breast
# CAKI-1 renal = tested on: CAKI-1 renal
# COLO 205 colon = tested on: COLO 205 colon
# DU-145 prostate = tested on: DU-145 prostate
# EKVX NSCLC = tested on: EKVX NSCLC
# HCT-116 colon = tested on: HCT-116 colon
# HCT-15 colon = tested on: HCT-15 colon
# HL-60(TB) leukemia = tested on: HL-60(TB) leukemia
# HOP-62 NSCLC = tested on: HOP-62 NSCLC
# HOP-92 NSCLC = tested on: HOP-92 NSCLC
# HS 578T breast = tested on: HS 578T breast
# HT29 colon = tested on: HT29 colon
# IGROV1 ovarian = tested on: IGROV1 ovarian
# KM12 colon = tested on: KM12 colon
# LOX IMVI melanoma = tested on: LOX IMVI melanoma
# M14 melanoma = tested on: M14 melanoma
# MALME-3M melanoma = tested on: MALME-3M melanoma
# MCF7 breast = tested on: MCF7 breast
# MDA-MB-231 breast = tested on: MDA-MB-231 breast
# MDA-MB-435 = tested on: MDA-MB-435
# MOLT-4 leukemia = tested on: MOLT-4 leukemia
# NCI-H226 lung = tested on: NCI-H226 lung
# NCI-H522 lung = tested on: NCI-H522 lung
# OVCAR-3 ovarian = tested on: OVCAR-3 ovarian
# OVCAR-4 ovarian = tested on: OVCAR-4 ovarian
# OVCAR-5 ovarian = tested on: OVCAR-5 ovarian
# OVCAR-8 ovarian = tested on: OVCAR-8 ovarian
# PC-3 prostate = tested on: PC-3 prostate
# RPMI-8226 leukemia = tested on: RPMI-8226 leukemia
# RXF 393 renal = tested on: RXF 393 renal
# SF-268 CNS = tested on: SF-268 CNS
# SF-295 CNS = tested on: SF-295 CNS
# SF-539 CNS = tested on: SF-539 CNS
# SK-MEL-2 melanoma = tested on: SK-MEL-2 melanoma
# SK-MEL-28 melanoma = tested on: SK-MEL-28 melanoma
# SK-MEL-5 melanoma = tested on: SK-MEL-5 melanoma
# SK-OV-3 ovarian = tested on: SK-OV-3 ovarian
# SN12C renal = tested on: SN12C renal
# SNB-19 CNS = tested on: SNB-19 CNS
# SNB-75 CNS = tested on: SNB-75 CNS
# SR leukemia = tested on: SR leukemia
# TK-10 renal = tested on: TK-10 renal
# U251 CNS = tested on: U251 CNS
# UACC-257 melanoma = tested on: UACC-257 melanoma
# UO-31 renal = tested on: UO-31 renal
smiles,measurement,setting,value
OC1CCN(CCCOc2c3ccc(Cl)cc3nc3c2oc2ccccc23)CC1,GI50,786-0 renal,1300 nM
same,TGI,786-0 renal,4860 nM
same,GI50,A549 NSCLC,1230 nM
same,TGI,A549 NSCLC,23200 nM
same,GI50,ACHN renal,491 nM
same,TGI,ACHN renal,11700 nM
same,GI50,BT-549 breast,2490 nM
same,TGI,BT-549 breast,7240 nM
same,GI50,CAKI-1 renal,525 nM
same,TGI,CAKI-1 renal,3350 nM
same,GI50,COLO 205 colon,661 nM
same,TGI,COLO 205 colon,2150 nM
same,GI50,DU-145 prostate,1570 nM
same,TGI,DU-145 prostate,> 100000 nM
same,GI50,EKVX NSCLC,2390 nM
same,TGI,EKVX NSCLC,8460 nM
same,GI50,HCT-116 colon,390 nM
same,TGI,HCT-116 colon,2110 nM
same,GI50,HCT-15 colon,780 nM
same,TGI,HCT-15 colon,> 100000 nM
same,GI50,HL-60(TB) leukemia,1580 nM
same,TGI,HL-60(TB) leukemia,4800 nM
same,GI50,HOP-62 NSCLC,1860 nM
same,TGI,HOP-62 NSCLC,11400 nM
same,GI50,HOP-92 NSCLC,1040 nM
same,TGI,HOP-92 NSCLC,3790 nM
same,GI50,HS 578T breast,2170 nM
same,TGI,HS 578T breast,8010 nM
same,GI50,HT29 colon,610 nM
same,TGI,HT29 colon,2270 nM
same,GI50,IGROV1 ovarian,1970 nM
same,TGI,IGROV1 ovarian,12500 nM
same,GI50,KM12 colon,1480 nM
same,TGI,KM12 colon,> 100000 nM
same,GI50,LOX IMVI melanoma,343 nM
same,TGI,LOX IMVI melanoma,1450 nM
same,GI50,M14 melanoma,1340 nM
same,TGI,M14 melanoma,3090 nM
same,GI50,MALME-3M melanoma,1490 nM
same,TGI,MALME-3M melanoma,3100 nM
same,GI50,MCF7 breast,968 nM
same,TGI,MCF7 breast,4300 nM
same,GI50,MDA-MB-231 breast,1570 nM
same,TGI,MDA-MB-231 breast,6130 nM
same,GI50,MDA-MB-435,1230 nM
same,TGI,MDA-MB-435,2570 nM
same,GI50,MOLT-4 leukemia,391 nM
same,TGI,MOLT-4 leukemia,3200 nM
same,GI50,NCI-H226 lung,1990 nM
same,TGI,NCI-H226 lung,5630 nM
same,GI50,NCI-H522 lung,1280 nM
same,TGI,NCI-H522 lung,3200 nM
same,GI50,OVCAR-3 ovarian,2200 nM
same,TGI,OVCAR-3 ovarian,> 100000 nM
same,GI50,OVCAR-4 ovarian,1390 nM
same,TGI,OVCAR-4 ovarian,5090 nM
same,GI50,OVCAR-5 ovarian,1970 nM
same,TGI,OVCAR-5 ovarian,6850 nM
same,GI50,OVCAR-8 ovarian,1130 nM
same,TGI,OVCAR-8 ovarian,13500 nM
same,GI50,PC-3 prostate,1490 nM
same,TGI,PC-3 prostate,4070 nM
same,GI50,RPMI-8226 leukemia,1590 nM
same,TGI,RPMI-8226 leukemia,4800 nM
same,GI50,RXF 393 renal,1280 nM
same,TGI,RXF 393 renal,3360 nM
same,GI50,SF-268 CNS,1490 nM
same,TGI,SF-268 CNS,> 100000 nM
same,GI50,SF-295 CNS,2080 nM
same,TGI,SF-295 CNS,11800 nM
same,GI50,SF-539 CNS,1320 nM
same,TGI,SF-539 CNS,2640 nM
same,GI50,SK-MEL-2 melanoma,1760 nM
same,TGI,SK-MEL-2 melanoma,3340 nM
same,GI50,SK-MEL-28 melanoma,1690 nM
same,TGI,SK-MEL-28 melanoma,3170 nM
same,GI50,SK-MEL-5 melanoma,1790 nM
same,TGI,SK-MEL-5 melanoma,3250 nM
same,GI50,SK-OV-3 ovarian,2420 nM
same,TGI,SK-OV-3 ovarian,10500 nM
same,GI50,SN12C renal,839 nM
same,TGI,SN12C renal,> 100000 nM
same,GI50,SNB-19 CNS,2280 nM
same,TGI,SNB-19 CNS,32600 nM
same,GI50,SNB-75 CNS,1330 nM
same,TGI,SNB-75 CNS,2700 nM
same,GI50,SR leukemia,458 nM
same,TGI,SR leukemia,3230 nM
same,GI50,TK-10 renal,2780 nM
same,TGI,TK-10 renal,7650 nM
same,GI50,U251 CNS,1090 nM
same,TGI,U251 CNS,7400 nM
same,GI50,UACC-257 melanoma,1720 nM
same,TGI,UACC-257 melanoma,3490 nM
same,GI50,UO-31 renal,517 nM
same,TGI,UO-31 renal,3100 nM
